Results published in patent US20240057638A1, “COMPOSITIONS FOR REDUCING METHANE EMISSION, METHODS FOR IMPROVING THE METABOLIC EFFICIENCY OF RUMINANT ANIMALS AND METHANOGENESIS INHIBITOR ADMINISTRATION” (MOOTRAL INNOVATIONS LIMITED, priority 2020, published 2024).

Test system: Methanococcus maripaludis
Experiment: Inhibition of methane production by Methanococcus maripaludis culture (pressure drop by manometer after 24 h)
Format: cell-based
Settings: for % Inhibition Gas: 37° C.
Experimental: For this experiment, bromoform was prepped at 100 mM by adding 8.75 μl bromoform to 991 μl DMSO. This was diluted 10x diluted to generate a 10 mM solution and further diluted to generate 0.12- and 0.156-mM stock solutions. Allicin stock solutions were prepared by adding 48.6 μl allicin to 951.4 μl DMSO to make a 300 mM stock solution and 32.5 μl allicin to 967.5 μl DMSO to make a 200 mM stock solution. The experiment was set up by adding 5 ml of M141 medium (https://www.dsmz.de/microorganisms/medium/pdf/DSMZ_Medium141.pdf) to a screw cap Hungate tube followed by the addition of 5 μl allicin and/or 5 μl bromoform or 10 μl DMSO as follows: • Tube 1: DMSO (10 μl) • Tube 2: Bromoform (5 μl 0.120 mM) (120 nM final)+5 μl DMSO • Tube 3: Bromoform (5 μl 0.156 mM) (156 nM final)+5 μl DMSO • Tube 4: Allicin (5 μl 200 mM) (200 μM final)+5 μl DMSO • Tube 5: Allicin (5 μl 300 mM) (300 μM final)+5 μl DMSO • Tube 6: Bromoform (5 μl 0.120 mM) (120 nM final)+Allicin (5 μl 200 mM) (200 μM final) • Tube 7: Bromoform (5 μl 0.120 mM) (120 nM final)+Allicin (5 μl 300 mM) (300 μM final) • Tube 8: Bromoform (5 μl 0.156 mM) (156 nM final)+Allicin (5 μl 200 mM) (200 μM final) • Tube 9: Bromoform (5 μl 0.156 mM) (156 nM final)+Allicin (5 μl 300 mM) (300 μM final)
After the addition of the test substances, 500 μl of an overnight M. maripaludis culture was added to each reaction tube. Each tube was gassed with 80% H2/20% CO2 to 240 kPa and incubated at 37° C. for 24 h.
After the 24 h incubation the pressure inside the tube was measured using a manometer. Given that 5 moles of H2/CO2 are consumed to generate 1 mole of CH4 the drop in pressure observed was used to calculate the amount of methane by the control and test reactions from which a percent inhibition was calculated.
For this experiment, bromoform was prepped at 100 mM by adding 8.75 μl bromoform to 991 μl DMSO. This was diluted 10× diluted to generate a 10 mM solution and further diluted to generate 0.10- and 0.156-mM stock solutions. The sample was prepared by adding 245 mg NXRH214 powder to 35 ml M141 medium (https://www.dsmz.de/microorganisms/medium/pdf/DSMZ_Medium141.pdf) to generate a 7 mg/ml stock solution. NXRH214 powder is a garlic powder (allicin) and citrus extract (polyphenol flavonoid mix) with a ratio of 93:7, where the flavonoid mix comprises mainly naringin and neohesperidin.

[1] = Methanococcus maripaludis, read-out: % Inhibition Gas

SMILES: C=CCS[S@@+]([O-])CC=C (stereo in doubt) [Allicin, allicin]
- % Inhibition Gas (Allicin 200 μM with DMSO): 0%
- % Inhibition Gas (Allicin 300 μM with DMSO): 19%

SMILES: BrC(Br)Br [Bromoform, bromoform]
- inhibition at 0.1 µM [1]: 0%
- inhibition at 0.156 µM [1]: 0.5%
